Drawing on patent publication US20150218172A1, “Pyrrolo[2,3-D]Pyrimidine Tropomyosin-Related Kinase Inhibitors” (PFIZER LIMITED, priority 2012, published 2015), this text covers IC50 for 31 compounds.

Molecules are shown by their SMILES.

In the assay the target is T1, TrkA (Homo sapiens, UniProt P04629).
T1 construct: aa 441-796; His; purchased Invitrogen PV3144
T1 sequence (P04629 441-796): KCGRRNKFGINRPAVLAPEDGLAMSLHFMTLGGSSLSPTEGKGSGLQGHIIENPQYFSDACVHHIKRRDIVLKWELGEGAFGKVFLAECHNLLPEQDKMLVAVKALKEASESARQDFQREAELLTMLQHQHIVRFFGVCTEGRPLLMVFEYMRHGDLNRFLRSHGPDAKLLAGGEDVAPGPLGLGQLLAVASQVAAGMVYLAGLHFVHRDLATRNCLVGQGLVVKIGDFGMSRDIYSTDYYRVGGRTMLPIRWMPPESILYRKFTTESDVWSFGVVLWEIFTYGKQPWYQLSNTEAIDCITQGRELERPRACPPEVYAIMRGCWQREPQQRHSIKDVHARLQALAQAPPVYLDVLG
Nature of the assay: Isolated TRK enzyme assay (HTRF KinEASE-TK kit), PV3144 TrkA enzyme assay. It is filed as biochemical. Particulars: PV3144 TrkA enzyme assay, recombinant His-tagged cytoplasmic domain aa 441-796, 4 nM enzyme, 40 uM ATP; arithmetic mean where more than one reading; read-out: Trka enzyme (IC50). Put shortly: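 Recombinant His-tagged cytoplasmic domain of human TrkA, preactivated with ATP for 20 min, then 20 min with compound before biotinylated TK substrate (1 uM final) at room temperature. HTRF read at 665/620 nm; % inhibition normalised to reference-compound and DMSO controls, IC50 from sigmoid fit, mean of replicates.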
Background: In TR-FRET formats the signal depends on donor and acceptor labels being close together.
In general, IC50 refers to the concentration needed to halve the response being measured. Consider `Cc1cn(CC(=O)Nc2cc(C(=O)c3cn(CCO)c4ncncc34)ccn2)nn1` [Example 133, N-(4-{[7-(2-hydroxyethyl)-7H-pyrrolo[2,3-d]pyrimidin-5-yl]carbonyl}pyridin-2-yl)-2-(4-methyl-1H-1,2,3-triazol-1-yl)acetamide], for which the IC50 was 9.38 µM.

For the compound `O=C(Cc1ccccc1OC(F)(F)F)Nc1cc(C(=O)c2cn(CCO)c3ncncc23)ccn1` [Example 134, N-(4-{[7-(2-hydroxyethyl)-7H-pyrrolo[2,3-d]pyrimidin-5-yl]carbonyl}pyridin-2-yl)-2-[2-(trifluoromethoxy)phenyl]acetamide], the IC50 came to 0.583 µM.

On to `O=C(Cc1cccc(OC(F)(F)F)c1)Nc1cc(C(=O)c2cn(CCO)c3ncncc23)ccn1` [Example 135, N-(4-{[7-(2-hydroxyethyl)-7H-pyrrolo[2,3-d]pyrimidin-5-yl]carbonyl}pyridin-2-yl)-2-[3-(trifluoromethoxy)phenyl]acetamide], for which the IC50 amounted to 0.0215 µM.

With `O=C(Cc1ccc(Cl)cc1)Nc1cc(C(=O)c2cn(CCO)c3ncncc23)ccn1` [Example 136, 2-(4-chlorophenyl)-N-(4-{[7-(2-hydroxyethyl)-7H-pyrrolo[2,3-d]pyrimidin-5-yl]carbonyl}pyridin-2-yl)acetamide], the IC50 was 0.0258 µM.

For `O=C(Cn1cc(C(F)(F)F)nn1)Nc1cc(C(=O)c2cn(CCO)c3ncncc23)ccn1` [Example 137, N-(4-{[7-(2-hydroxyethyl)-7H-pyrrolo[2,3-d]pyrimidin-5-yl]carbonyl}pyridin-2-yl)-2-[4-(trifluoromethyl)-1H-1,2,3-triazol-1-yl]acetamide], the IC50 was determined as 0.188 µM.

With `O=C(Cc1ccc(Cl)c(Cl)c1)Nc1cc(C(=O)c2cn(CCO)c3ncncc23)ccn1` [Example 138, 2-(3,4-dichlorophenyl)-N-(4-{[7-(2-hydroxyethyl)-7H-pyrrolo[2,3-d]pyrimidin-5-yl]carbonyl}pyridin-2-yl)acetamide], the IC50 stood at 0.0311 µM.

For `Cc1cc(C)n(CC(=O)Nc2cc(C(=O)c3cn(CCO)c4ncncc34)ccn2)n1` [Example 139, 2-(3,5-dimethyl-1H-pyrazol-1-yl)-N-(4-{[7-(2-hydroxyethyl)-7H-pyrrolo[2,3-d]pyrimidin-5-yl]carbonyl}pyridin-2-yl)acetamide], the IC50 was 0.76 µM.

On to `O=C(Cc1ccc(F)cc1F)Nc1cc(C(=O)c2cn(CCO)c3ncncc23)ccn1` [Example 140, 2-(2,4-difluorophenyl)-N-(4-{[7-(2-hydroxyethyl)-7H-pyrrolo[2,3-d]pyrimidin-5-yl]carbonyl}pyridin-2-yl)acetamide], for which the IC50 came out at 0.223 µM.

For `O=C(Cc1ccc(C(F)(F)F)cc1)Nc1cc(C(=O)c2cn(CCO)c3ncncc23)ccn1` [Example 141, N-(4-{[7-(2-hydroxyethyl)-7H-pyrrolo[2,3-d]pyrimidin-5-yl]carbonyl}pyridin-2-yl)-2-[4-(trifluoromethyl)phenyl]acetamide], the IC50 came to 0.0164 µM.

With `O=C(Cc1ccc(C(F)(F)F)c(F)c1)Nc1cc(C(=O)c2cn(CCO)c3ncncc23)ccn1` [Example 142, 2-[3-fluoro-4-(trifluoromethyl)phenyl]-N-(4-{[7-(2-hydroxyethyl)-7H-pyrrolo[2,3-d]pyrimidin-5-yl]carbonyl}pyridin-2-yl)acetamide], the IC50 turned out to be 0.0295 µM.

In the case of `N#Cc1ccc(CC(=O)Nc2cc(C(=O)c3cn(CCO)c4ncncc34)ccn2)cc1` [Example 143, 2-(4-cyanophenyl)-N-(4-{[7-(2-hydroxyethyl)-7H-pyrrolo[2,3-d]pyrimidin-5-yl]carbonyl}pyridin-2-yl)acetamide], the IC50 turned out to be 0.268 µM.

Turning to `O=C(Cc1ccc(OC(F)(F)F)cc1)Nc1cc(C(=O)c2cn(CCO)c3ncncc23)ccn1` [Example 144, N-(4-{[7-(2-hydroxyethyl)-7H-pyrrolo[2,3-d]pyrimidin-5-yl]carbonyl}pyridin-2-yl)-2-[4-(trifluoromethoxy)phenyl]acetamide], the IC50 was 0.111 µM.

Take `O=C(Cc1ccc(F)cc1)Nc1cc(C(=O)c2cn(CCO)c3ncncc23)ccn1` [Example 145, 2-(4-fluorophenyl)-N-(4-{[7-(2-hydroxyethyl)-7H-pyrrolo[2,3-d]pyrimidin-5-yl]carbonyl}pyridin-2-yl)acetamide]: the half-maximal inhibitory concentration (IC50) is 0.484 µM.

As to `O=C(Cc1cccc(Cl)c1)Nc1cc(C(=O)c2cn(CCO)c3ncncc23)ccn1` [Example 146, 2-(3-chlorophenyl)-N-(4-{[7-(2-hydroxyethyl)-7H-pyrrolo[2,3-d]pyrimidin-5-yl]carbonyl}pyridin-2-yl)acetamide], the IC50 turned out to be 0.246 µM.

In the case of `Cc1cc(C(F)(F)F)nn1CC(=O)Nc1cc(C(=O)c2cn(C(C)C)c3ncncc23)ccn1` [Example 147, 2-[5-methyl-3-(trifluoromethyl)-1H-pyrazol-1-yl]-N-(4-{[7-(propan-2-yl)-7H-pyrrolo[2,3-d]pyrimidin-5-yl]carbonyl}pyridin-2-yl)acetamide], the IC50 was determined as 0.0162 µM.

Regarding `CC(C)c1ccnn1CC(=O)Nc1cc(C(=O)c2cn(C(C)C)c3ncncc23)ccn1` [Example 148, 2-[5-(propan-2-yl)-1H-pyrazol-1-yl]-N-(4-{[7-(propan-2-yl)-7H-pyrrolo[2,3-d]pyrimidin-5-yl]carbonyl}pyridin-2-yl)acetamide], the IC50 was 0.185 µM.

Regarding `CC(C)n1cc(C(=O)c2ccnc(NC(=O)Cc3ccccc3)c2)c2cncnc21` [Example 149, 2-phenyl-N-(4-{[7-(propan-2-yl)-7H-pyrrolo[2,3-d]pyrimidin-5-yl]carbonyl}pyridin-2-yl)acetamide], the IC50 was 0.171 µM.

With `CC(C)n1cc(C(=O)c2ccnc(NC(=O)Cc3ccc(Cl)cc3)c2)c2cncnc21` [Example 150, 2-(4-chlorophenyl)-N-(4-{[7-(propan-2-yl)-7H-pyrrolo[2,3-d]pyrimidin-5-yl]carbonyl}pyridin-2-yl)acetamide], the IC50 was 0.0853 µM.

As to `Cc1cc(C(C)C)nn1CC(=O)Nc1cc(C(=O)c2cn(C(C)C)c3ncncc23)ccn1` [Example 151, 2-[5-methyl-3-(propan-2-yl)-1H-pyrazol-1-yl]-N-(4-{[7-(propan-2-yl)-7H-pyrrolo[2,3-d]pyrimidin-5-yl]carbonyl}pyridin-2-yl)acetamide], the IC50 was found to be 0.0212 µM.

On to `Cc1cc(C)n(CC(=O)Nc2cc(C(=O)c3cn(C(C)C)c4ncncc34)ccn2)n1` [Example 152, 2-(3,5-dimethyl-1H-pyrazol-1-yl)-N-(4-{[7-(propan-2-yl)-7H-pyrrolo[2,3-d]pyrimidin-5-yl]carbonyl}pyridin-2-yl)acetamide], for which the IC50 came out at 0.0712 µM.

Take `CC(C)n1cc(C(=O)c2ccnc(NC(=O)Cc3ccc(F)cc3)c2)c2cncnc21` [Example 153, 2-(4-fluorophenyl)-N-(4-{[7-(propan-2-yl)-7H-pyrrolo[2,3-d]pyrimidin-5-yl]carbonyl}pyridin-2-yl)acetamide]: the IC50 amounted to 0.042 µM.

For `CC(C)n1cc(C(=O)c2ccnc(NC(=O)Cc3cccc(OC(F)(F)F)c3)c2)c2cncnc21` [Example 154, N-(4-{[7-(propan-2-yl)-7H-pyrrolo[2,3-d]pyrimidin-5-yl]carbonyl}pyridin-2-yl)-2-[3-(trifluoromethoxy)phenyl]acetamide], the IC50 came to 0.0124 µM.

Take `CC(C)n1cc(C(=O)c2ccnc(NC(=O)Cc3cccc(Cl)c3)c2)c2cncnc21` [Example 155, 2-(3-chlorophenyl)-N-(4-{[7-(propan-2-yl)-7H-pyrrolo[2,3-d]pyrimidin-5-yl]carbonyl}pyridin-2-yl)acetamide]: the IC50 stood at 0.0143 µM.

Turning to `CC(C)n1cc(C(=O)c2ccnc(NC(=O)Cn3ccnc3)c2)c2cncnc21` [Example 156, 2-(1H-imidazol-1-yl)-N-(4-{[7-(propan-2-yl)-7H-pyrrolo[2,3-d]pyrimidin-5-yl]carbonyl}pyridin-2-yl)acetamide], the IC50 amounted to 1.06 µM.

As to `CC(C)n1cc(C(=O)c2ccnc(NC(=O)Cc3ccc(Cl)cc3Cl)c2)c2cncnc21` [Example 157, 2-(2,4-dichlorophenyl)-N-(4-{[7-(propan-2-yl)-7H-pyrrolo[2,3-d]pyrimidin-5-yl]carbonyl}pyridin-2-yl)acetamide], the IC50 was 0.0156 µM.

As to `CC(C)n1cc(C(=O)c2ccnc(NC(=O)Cn3cccn3)c2)c2cncnc21` [Example 158, N-(4-{[7-(propan-2-yl)-7H-pyrrolo[2,3-d]pyrimidin-5-yl]carbonyl}pyridin-2-yl)-2-(1H-pyrazol-1-yl)acetamide], the IC50 was 1.35 µM.

`CC(C)n1cc(C(=O)c2ccnc(NC(=O)Cc3ccccc3Cl)c2)c2cncnc21` [Example 159, 2-(2-chlorophenyl)-N-(4-{[7-(propan-2-yl)-7H-pyrrolo[2,3-d]pyrimidin-5-yl]carbonyl}pyridin-2-yl)acetamide]: the IC50 was determined as 0.0536 µM.

For the compound `Cc1ccnn1CC(=O)Nc1cc(C(=O)c2cn(C(C)C)c3ncncc23)ccn1` [Example 160, 2-(5-methyl-1H-pyrazol-1-yl)-N-(4-{[7-(propan-2-yl)-7H-pyrrolo[2,3-d]pyrimidin-5-yl]carbonyl}pyridin-2-yl)acetamide], the IC50 turned out to be 0.0863 µM.

On to `COc1ccc(CC(=O)Nc2cc(C(=O)c3cn(C(C)C)c4ncncc34)ccn2)cc1` [Example 161, 2-(4-methoxyphenyl)-N-(4-{[7-(propan-2-yl)-7H-pyrrolo[2,3-d]pyrimidin-5-yl]carbonyl}pyridin-2-yl)acetamide], for which the IC50 is 0.0608 µM.

Turning to `Cc1nccn1CC(=O)Nc1cc(C(=O)c2cn(C(C)C)c3ncncc23)ccn1` [Example 162, 2-(2-methyl-1H-imidazol-1-yl)-N-(4-{[7-(propan-2-yl)-7H-pyrrolo[2,3-d]pyrimidin-5-yl]carbonyl}pyridin-2-yl)acetamide], the IC50 was determined as 9.8 µM.

As to `CC(C)n1cc(C(=O)c2ccnc(NC(=O)Cc3ccccn3)c2)c2cncnc21` [Example 163, N-(4-{[7-(propan-2-yl)-7H-pyrrolo[2,3-d]pyrimidin-5-yl]carbonyl}pyridin-2-yl)-2-(pyridin-2-yl)acetamide], the IC50 came to 3.62 µM.
